Source: ChEMBL document CHEMBL5344441, “Discovery and Preclinical Pharmacology of NX-2127, an Orally Bioavailable Degrader of Bruton's Tyrosine Kinase with Immunomodulatory Activity for the Treatment of Patients with B Cell Malignancies” (J Med Chem, 2024)
pIC50, pKd: −log10 of the molar value. Converted amounts (≈) assume the structure as drawn. The source made the active and inactive calls. The rule behind the calls is not given here.

Columns and labels:
[1] = biological target: T1, Protein cereblon/Tyrosine-protein kinase BTK (Homo sapiens, UniProt Q06187+Q96SW2); test: PROTAC activity at CRBN/BTK in human TMD8 cells assessed as maximal degradation of BTK protein incubated for 4 hrs by HTRF assay relative to control; assay type: cell-based
T1 sequence (Q06187 2-659 limits assumed): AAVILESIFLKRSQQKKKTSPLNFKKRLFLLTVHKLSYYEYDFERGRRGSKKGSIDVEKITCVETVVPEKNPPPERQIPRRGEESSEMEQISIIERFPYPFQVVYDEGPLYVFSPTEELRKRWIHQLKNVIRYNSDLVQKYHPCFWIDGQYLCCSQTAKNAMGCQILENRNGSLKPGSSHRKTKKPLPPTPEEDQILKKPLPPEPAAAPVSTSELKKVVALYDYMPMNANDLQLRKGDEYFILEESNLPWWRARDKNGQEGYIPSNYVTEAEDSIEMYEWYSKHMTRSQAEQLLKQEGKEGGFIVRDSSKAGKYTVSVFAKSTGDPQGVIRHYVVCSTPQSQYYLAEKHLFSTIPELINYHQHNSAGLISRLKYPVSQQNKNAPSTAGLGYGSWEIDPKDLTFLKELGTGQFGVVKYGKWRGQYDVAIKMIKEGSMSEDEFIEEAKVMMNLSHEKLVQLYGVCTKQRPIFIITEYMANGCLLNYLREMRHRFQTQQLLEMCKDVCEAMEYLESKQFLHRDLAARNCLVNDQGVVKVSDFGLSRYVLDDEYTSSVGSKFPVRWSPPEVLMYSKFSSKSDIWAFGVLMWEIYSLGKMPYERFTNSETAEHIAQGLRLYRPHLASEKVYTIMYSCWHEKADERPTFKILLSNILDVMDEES
T1 sequence (Q96SW2 whole entry partner): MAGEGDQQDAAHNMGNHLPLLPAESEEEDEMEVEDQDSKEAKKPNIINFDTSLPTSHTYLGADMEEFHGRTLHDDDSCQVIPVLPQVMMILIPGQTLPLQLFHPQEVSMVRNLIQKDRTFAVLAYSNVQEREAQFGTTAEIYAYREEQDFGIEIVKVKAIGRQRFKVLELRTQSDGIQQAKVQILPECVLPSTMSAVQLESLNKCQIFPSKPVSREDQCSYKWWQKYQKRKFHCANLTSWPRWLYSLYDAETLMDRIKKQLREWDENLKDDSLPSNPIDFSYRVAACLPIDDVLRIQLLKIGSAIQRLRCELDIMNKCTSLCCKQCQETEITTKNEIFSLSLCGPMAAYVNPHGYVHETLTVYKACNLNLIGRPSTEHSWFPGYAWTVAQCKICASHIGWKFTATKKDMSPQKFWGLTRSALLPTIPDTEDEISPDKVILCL

[2] = biological target: T2, Protein cereblon/Tyrosine-protein kinase BTK (Mus musculus) (UniProt P35991+Q8C7D2); test: In vivo protac activity at CRBN/BTK in CD-1 mouse assessed as remaining BTK protein in blood at 30 mg/kg,po administration measured after 24 hrs by flow cytomtery relative to control; assay type: functional, organism-based
T2 sequence (P35991 whole entry, looked up): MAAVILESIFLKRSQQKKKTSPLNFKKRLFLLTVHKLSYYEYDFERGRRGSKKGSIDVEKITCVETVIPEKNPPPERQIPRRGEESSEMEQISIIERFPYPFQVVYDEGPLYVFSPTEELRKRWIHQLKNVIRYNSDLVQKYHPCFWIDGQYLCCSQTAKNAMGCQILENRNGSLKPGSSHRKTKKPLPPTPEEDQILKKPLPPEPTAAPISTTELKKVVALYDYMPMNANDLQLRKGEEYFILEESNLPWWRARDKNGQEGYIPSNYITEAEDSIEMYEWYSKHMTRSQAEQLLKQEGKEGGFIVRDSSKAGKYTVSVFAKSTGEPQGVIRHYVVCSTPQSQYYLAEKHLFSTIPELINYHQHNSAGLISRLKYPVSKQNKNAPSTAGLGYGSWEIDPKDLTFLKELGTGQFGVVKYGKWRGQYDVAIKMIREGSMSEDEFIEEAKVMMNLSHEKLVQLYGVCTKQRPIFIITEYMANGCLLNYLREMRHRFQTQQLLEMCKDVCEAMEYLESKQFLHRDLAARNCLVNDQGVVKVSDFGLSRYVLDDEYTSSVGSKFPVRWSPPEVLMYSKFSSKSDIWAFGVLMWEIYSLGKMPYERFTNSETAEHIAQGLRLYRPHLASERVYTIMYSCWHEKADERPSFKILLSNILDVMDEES
T2 sequence (Q8C7D2 whole entry, looked up): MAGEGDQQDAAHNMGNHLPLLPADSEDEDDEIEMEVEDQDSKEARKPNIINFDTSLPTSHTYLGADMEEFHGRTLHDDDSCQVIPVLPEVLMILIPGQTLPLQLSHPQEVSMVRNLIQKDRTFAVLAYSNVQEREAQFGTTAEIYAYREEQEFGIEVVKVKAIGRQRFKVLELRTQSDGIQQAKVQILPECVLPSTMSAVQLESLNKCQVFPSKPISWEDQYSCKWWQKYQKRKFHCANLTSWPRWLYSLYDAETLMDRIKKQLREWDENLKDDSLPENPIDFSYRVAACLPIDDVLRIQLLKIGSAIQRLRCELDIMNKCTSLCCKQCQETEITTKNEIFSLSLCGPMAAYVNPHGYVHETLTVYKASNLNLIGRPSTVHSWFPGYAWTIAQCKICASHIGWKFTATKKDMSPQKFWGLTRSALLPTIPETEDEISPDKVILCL

[3] = Lipophilicity, logD of compound at pH 7.4; assay type: physicochemical; settings: buffer
[4] = biological target: Protein cereblon/Tyrosine-protein kinase BTK (Homo sapiens, UniProt Q06187+Q96SW2, C481S); test: PROTAC activity at CRBN/BTK C481S mutant in human TMD8 cells assessed as degradation of BTK protein incubated for 4 hrs by HTRF assay; assay type: cell-based
Cereblon/Ikaros = Cereblon/Ikaros (Homo sapiens, UniProt Q96SW2+Q13422); test: PROTAC activity at CRBN/IKZF1 in human T cell assessed as degradation of IKZF1 protein incubated for 24 hrs by flow cytometry; assay type: cell-based
Chain of Cereblon/Ikaros (Q96SW2 whole entry): as the sequence (Q96SW2 whole entry partner) above
Chain of Cereblon/Ikaros (Q13422 whole entry): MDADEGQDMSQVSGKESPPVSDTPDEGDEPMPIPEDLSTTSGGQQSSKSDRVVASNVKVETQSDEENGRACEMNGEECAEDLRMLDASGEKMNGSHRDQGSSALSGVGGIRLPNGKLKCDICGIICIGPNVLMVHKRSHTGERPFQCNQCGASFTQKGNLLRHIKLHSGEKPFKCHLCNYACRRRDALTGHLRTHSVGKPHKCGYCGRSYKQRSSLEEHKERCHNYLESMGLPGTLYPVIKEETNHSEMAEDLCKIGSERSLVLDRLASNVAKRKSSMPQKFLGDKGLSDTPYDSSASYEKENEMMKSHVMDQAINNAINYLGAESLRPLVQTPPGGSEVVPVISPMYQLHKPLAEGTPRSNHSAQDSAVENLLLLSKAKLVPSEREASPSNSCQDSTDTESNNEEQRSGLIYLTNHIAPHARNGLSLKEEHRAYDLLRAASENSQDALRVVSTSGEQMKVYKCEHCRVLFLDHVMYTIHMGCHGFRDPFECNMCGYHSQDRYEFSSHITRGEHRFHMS

[5] = Aqueous solubility of the compound in PBS at pH 7.4; assay type: physicochemical
[6] = Plasma protein binding in rat; assay type: ADME, cell-free; settings: read-out: PPB
[7] = Observed clearance in mouse at 1 mg/kg,iv; assay type: ADME, organism-based; settings: in vivo
[8] = Observed clearance in rat at 1 mg/kg,iv; assay type: ADME, organism-based; settings: in vivo
[9] = Observed clearance in cynomolgus monkey at 1 mg/kg,iv; assay type: ADME, organism-based, Macaca fascicularis; settings: in vivo
[10] = Oral bioavailability in rat at 10 mg/kg; assay type: ADME, organism-based; settings: in vivo
[11] = biological target: T3, Protein cereblon-BTK (Macaca fascicularis) (UniProt A0A2K5UTB3+A0A7N9IGT8); test: In vivo protac activity at CRBN/BTK in cynomolgus monkey assessed as remaining BTK protein at 10 mg/kg,po administration measured after 24 hrs by flow cytomtery relative to control; assay type: functional, organism-based
T3 sequence (A0A2K5UTB3 1-488): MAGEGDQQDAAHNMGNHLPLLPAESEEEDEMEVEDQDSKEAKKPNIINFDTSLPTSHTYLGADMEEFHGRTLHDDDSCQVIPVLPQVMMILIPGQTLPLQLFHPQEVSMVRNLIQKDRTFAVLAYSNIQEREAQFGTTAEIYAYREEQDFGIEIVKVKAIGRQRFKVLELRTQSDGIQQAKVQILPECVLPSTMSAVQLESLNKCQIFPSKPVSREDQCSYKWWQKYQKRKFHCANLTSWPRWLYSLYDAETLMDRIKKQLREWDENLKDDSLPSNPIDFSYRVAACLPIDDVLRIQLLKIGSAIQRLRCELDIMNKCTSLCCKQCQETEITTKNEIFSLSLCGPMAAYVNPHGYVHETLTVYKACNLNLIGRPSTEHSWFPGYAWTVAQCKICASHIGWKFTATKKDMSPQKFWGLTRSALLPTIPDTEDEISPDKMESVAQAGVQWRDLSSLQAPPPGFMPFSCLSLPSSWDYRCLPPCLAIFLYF
T3 sequence (A0A7N9IGT8 entry or part of it partner): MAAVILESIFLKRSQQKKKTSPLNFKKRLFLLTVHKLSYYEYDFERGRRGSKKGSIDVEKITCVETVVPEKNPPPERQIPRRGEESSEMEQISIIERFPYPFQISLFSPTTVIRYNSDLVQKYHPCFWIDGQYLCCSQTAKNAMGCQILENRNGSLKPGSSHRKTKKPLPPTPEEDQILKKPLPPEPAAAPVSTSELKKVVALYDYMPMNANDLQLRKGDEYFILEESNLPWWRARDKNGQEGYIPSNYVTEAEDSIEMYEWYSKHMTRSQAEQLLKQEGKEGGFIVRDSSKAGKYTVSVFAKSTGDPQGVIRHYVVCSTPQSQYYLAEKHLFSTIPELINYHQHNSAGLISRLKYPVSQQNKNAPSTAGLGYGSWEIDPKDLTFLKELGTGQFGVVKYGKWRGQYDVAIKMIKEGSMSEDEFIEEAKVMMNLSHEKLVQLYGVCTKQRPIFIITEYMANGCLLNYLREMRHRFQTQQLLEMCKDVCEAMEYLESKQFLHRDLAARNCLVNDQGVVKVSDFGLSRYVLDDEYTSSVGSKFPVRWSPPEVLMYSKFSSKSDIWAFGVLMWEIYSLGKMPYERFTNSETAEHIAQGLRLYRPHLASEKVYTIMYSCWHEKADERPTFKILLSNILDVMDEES

T-cell = test: Activation of T-cellular function in anti-CD3/anti-CD28 activated human T cell assessed as increase in IL-2 secretion at 0.001 to 100 nM incubated for 24 hrs followed by anti-CD3/anti-CD28 stimulation by ELISA; assay type: functional, cell-based; settings: dose 0.001-100 nM
[12] = biological target: T1, Protein cereblon/Tyrosine-protein kinase BTK; test: PROTAC activity at CRBN/BTK in human PBMC cells asessed as degradation of BTK protein at 50 nM incubated for 4 hrs by proteomics assay based LC-MS/MS analysis; assay type: cell-based
[13] = biological target: T3, Protein cereblon-BTK (Macaca fascicularis); test: In vivo protac activity at CRBN/BTK in cynomolgus monkey assessed as remaining BTK protein in B cells at 10 mg/kg,po administration for 1 day by flow cytomtery relative to control; assay type: functional, organism-based
[14] = biological target: T4, Protein cereblon/Zinc finger protein Aiolos (Macaca fascicularis) (UniProt A0A2K5UTB3+A0A2K5VJM3); test: In vivo protac activity at CRBN/IKZF3 in cynomolgus monkey assessed as degradation of IKZF3 protein at 10 mg/kg,po administration for 14 days by flow cytomtery relative to control; assay type: functional, organism-based; settings: time 14.0 day
T4 sequence (A0A2K5UTB3 1-488): as the sequence (A0A2K5UTB3 1-488) above
T4 sequence (A0A2K5VJM3 entry or part of it partner): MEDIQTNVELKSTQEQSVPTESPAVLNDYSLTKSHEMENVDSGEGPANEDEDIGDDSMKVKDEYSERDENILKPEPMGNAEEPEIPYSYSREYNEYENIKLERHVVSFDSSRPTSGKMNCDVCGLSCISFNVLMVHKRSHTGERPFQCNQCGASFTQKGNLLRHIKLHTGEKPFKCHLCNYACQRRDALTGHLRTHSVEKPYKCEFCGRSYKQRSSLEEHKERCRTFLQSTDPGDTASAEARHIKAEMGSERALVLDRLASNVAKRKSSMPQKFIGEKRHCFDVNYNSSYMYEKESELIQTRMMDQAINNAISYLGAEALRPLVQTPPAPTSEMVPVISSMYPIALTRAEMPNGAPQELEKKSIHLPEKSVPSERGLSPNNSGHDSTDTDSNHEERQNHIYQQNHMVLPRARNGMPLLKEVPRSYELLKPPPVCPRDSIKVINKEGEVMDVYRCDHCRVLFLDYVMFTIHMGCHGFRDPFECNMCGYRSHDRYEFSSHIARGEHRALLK

[15] = biological target: T4, Protein cereblon/Zinc finger protein Aiolos (Macaca fascicularis); test: In vivo protac activity at CRBN/IKZF3 in cynomolgus monkey assessed as degradation of IKZF3 protein at 30 mg/kg,po administration for 14 days by flow cytomtery relative to control; assay type: functional, organism-based; settings: time 14.0 day
TMD8 [16] = test: Antitumor activity against human TMD8 cells expressing wild type BTK xenografted in CB17-SCID mouse assessed as tumor growth inhibition at 90 mg/kg,po administration for 25 days; assay type: functional; settings: TMD8, 600 h, time 25 day, read-out: TGI
TMD8 [17] = test: Antitumor activity against human TMD8 cells expressing BTK C481S mutant xenografted in CB17-SCID mouse assessed as tumor growth inhibition at 90 mg/kg,po administration for 25 days; assay type: functional; settings: TMD8, 600 h, time 25 day, read-out: TGI
[18] = biological target: Voltage-gated inwardly rectifying potassium channel KCNH2 (Homo sapiens, UniProt Q12809); test: Inhibition of human ERG; assay type: toxicity
Cytochrome P450 2D6 = Cytochrome P450 2D6 (Homo sapiens, UniProt P10635); test: Inhibition of CYP2D6 (unknown origin); assay type: ADME
Cytochrome P450 2C9 = Cytochrome P450 2C9 (Homo sapiens, UniProt P11712); test: Inhibition of CYP2C9 (unknown origin); assay type: ADME
Chain of Cytochrome P450 2C9 (P11712 whole entry): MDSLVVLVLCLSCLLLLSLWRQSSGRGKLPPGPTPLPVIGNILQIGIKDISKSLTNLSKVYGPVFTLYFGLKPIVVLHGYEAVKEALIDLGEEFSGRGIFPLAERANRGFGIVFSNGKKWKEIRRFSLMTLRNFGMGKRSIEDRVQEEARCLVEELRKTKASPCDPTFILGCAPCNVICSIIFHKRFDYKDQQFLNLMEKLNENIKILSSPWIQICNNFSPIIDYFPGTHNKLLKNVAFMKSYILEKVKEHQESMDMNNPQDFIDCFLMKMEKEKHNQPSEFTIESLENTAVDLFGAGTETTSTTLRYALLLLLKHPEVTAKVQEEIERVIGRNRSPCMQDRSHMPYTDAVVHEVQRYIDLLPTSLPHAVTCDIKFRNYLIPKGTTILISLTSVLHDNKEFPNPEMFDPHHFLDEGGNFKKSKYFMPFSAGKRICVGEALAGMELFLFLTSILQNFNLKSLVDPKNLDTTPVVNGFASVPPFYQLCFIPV

Cytochrome P450 2C19 = Cytochrome P450 2C19 (Homo sapiens, UniProt P33261); test: Inhibition of CYP2C19 (unknown origin); assay type: ADME
Cytochrome P450 1A2 = Cytochrome P450 1A2 (Homo sapiens, UniProt P05177); test: Inhibition of CYP1A2 (unknown origin); assay type: ADME
[19] = biological target: Tyrosine-protein kinase BTK (Homo sapiens, UniProt Q06187, C481S); test: Binding affinity to BTK C481S mutant (unknown origin) assessed as dissociation constant by surface plasmon resonance assay
Chain of Tyrosine-protein kinase BTK (Q06187 2-659 C481S limits assumed): as the sequence (Q06187 2-659 limits assumed) above, with C480S counted along it

[20] = biological target: T2, Protein cereblon/Tyrosine-protein kinase BTK (Mus musculus); test: In vivo protac activity at CRBN/BTK in BALB/c mouse assessed as residual BTK protein in blood at 10 mg/kg,po administration measured after 24 hrs by flow cytomtery relative to control
[21] = biological target: T2, Protein cereblon/Tyrosine-protein kinase BTK (Mus musculus); test: In vivo protac activity at CRBN/BTK in BALB/c mouse assessed as residual BTK protein in blood at 30 mg/kg,po administration measured after 24 hrs by flow cytomtery relative to control
[22] = biological target: T2, Protein cereblon/Tyrosine-protein kinase BTK (Mus musculus); test: In vivo protac activity at CRBN/BTK in BALB/c mouse assessed as residual BTK protein in blood at 0.3 mg/kg,po administration measured after 24 hrs by flow cytomtery relative to control
[23] = test system: Protein cereblon/Tyrosine-protein kinase BTK (Homo sapiens); test: In vivo protac activity at CRBN/BTK in CB17-SCID mouse xenografted with human TMD8 cells assessed as degradation of BTK protein in tumor at 10 to 90 mg/kg,po administration for 25 days by flow cytomtery; settings: dose 10-90 mg/kg, time 25.0 day

## NC(=O)c1ncc(N2CCCCC2)nc1Nc1ccc(C2CCN(C[C@H]3CCN(c4ccc5c(c4)C(=O)N(C4CCC(=O)NC4=O)C5=O)C3)CC2)cc1 (some centres undefined) [ZELEBRUDOMIDE]
[1]
  Emax: 94%
[2]
  Activity: 11%
[3]
  logD: 3.1
[4]
  DC50: 31 nM
Cereblon/Ikaros
  DC50: 57 nM
[5]
  solubility: 0.2 µM (≈ 0.144 µg/mL)
[6]
  fraction unbound: < 0.015
[7]
  clearance: 5.2 mL/min/kg
[8]
  clearance: 19 mL/min/kg
[9]
  clearance: 22.2 mL/min/kg
[10]
  bioavailability: 7.1%
[11]
  Activity: 10%
T-cell
  Activity: Active
[12]
  Activity: Active
[13]
  Activity: 11%
[14]
  Activity: 76%
[15]
  Activity: 55%
TMD8 [16]
  inhibition in vivo at 90 mg/kg: 99%
TMD8 [17]
  inhibition in vivo at 90 mg/kg: 59%
[18]
  pIC50: < 4.52
Cytochrome P450 2D6
  pIC50: < 4.52
Cytochrome P450 2C9
  pIC50: < 4.52
Cytochrome P450 2C19
  pIC50: < 4.52
Cytochrome P450 1A2
  pIC50: < 4.52
[19]
  pKd: 7.74
[20]
  residual activity: 21%
[21]
  residual activity: 12%
[22]
  residual activity: 81%
[23]
  Activity: Active
